For data set [1] the following is noted: cited from earlier work.

For one compound, solubility and water solubility results are on record in patent US20050163855A1, “Method of preparing low-crystallinity oltipraz or amorphous oltipraz” (CJ CORPORATION, priority 2004, published 2005).

≈ marks a conversion by molar mass, not a printed value.

A word on the solubility: it is how much of the substance goes into solution per volume. Take `Cc1c(-c2cnccn2)ssc1=S` [oltipraz]: the solubility in “physchem” (Cremophor EL, organic solvent or mixture) is 9.44 mg/mL (≈ 41.7 mM); in “physchem” (Cremophor RH40, organic solvent or mixture), 10.7 mg/mL (≈ 47.2 mM); in “physchem” (Dimethylisosorbide, organic solvent or mixture) it was 17.2 mg/mL (≈ 76.2 mM); in “physchem” (Labrasol, organic solvent or mixture) it was 12.6 mg/mL (≈ 55.6 mM); in the data set “physchem” (N,N-dimethylformamide, organic solvent or mixture) it was 31.3 mg/mL (≈ 138 mM); in the data set “physchem” (N-methypyrrolidone, organic solvent or mixture), 13.7 mg/mL (≈ 60.3 mM). Moreover, the solubility amounted to 7.99 mg/mL (≈ 35.3 mM) in “physchem” (Polymethylene glycol 200, organic solvent or mixture); 10.5 mg/mL (≈ 46.5 mM) in the data set “physchem” (Polymethylene glycol 400, organic solvent or mixture); 0.57 mg/mL (≈ 2.52 mM) in “physchem” (Polypropylene glycol, organic solvent or mixture); 13.6 mg/mL (≈ 59.9 mM) in the data set “physchem” (Tetraglycol, organic solvent or mixture); 10.3 mg/mL (≈ 45.7 mM) in “physchem” (Transcutol, organic solvent or mixture); 4.05 mg/mL (≈ 17.9 mM) in the data set “physchem” (acetone, organic solvent or mixture). Also, the solubility in “physchem” (acetonitrile, organic solvent or mixture) came to 2.73 mg/mL (≈ 12.1 mM); in the data set “physchem” (chloroform, organic solvent or mixture) it was 28.6 mg/mL (≈ 126 mM); in “physchem” (dimethyl sulfoxide, organic solvent or mixture) it was 29.1 mg/mL (≈ 129 mM); in the data set “physchem” (ethanol, organic solvent or mixture) it was 0.67 mg/mL (≈ 2.96 mM); in the data set “physchem” (methanol, organic solvent or mixture), 0.5 mg/mL (≈ 2.21 mM); in “physchem” (methylene chloride, organic solvent or mixture) it was 7.6 mg/mL (≈ 33.6 mM). In addition, in data set [1], the water solubility is at most 0.001 mg/mL.
